Measured values: US20240207236A1, “COMPOUND FOR PREVENTING OR TREATING DIABETES” (ONCOCROSS CO., LTD., priority 2021, published 2024)

Columns and labels:
Assay type in all cases: in vivo, mice (C57BL/6)
[1] = Body weight of mice in STZ-induced insulin-resistant diabetes model
Description: (§1) STZ (Sigma-aldrich, S0130, 40 mg/kg b.w., in 0.1 M citrate buffer pH 4.5) was intraperitoneally administered to 9-week-old male mice (C57BL/6) once/1 day for 5 days to perform a first disease induction. After 7 weeks of the first induction, a second induction was performed using the same method as the first induction. For 5 days of an STZ administration period for the first induction, 10% sucrose was administered as drinking water. In addition, after 14 days of the second administration, blood sugar was confirmed to confirm the induction rate, and the induced animals were separated into groups. Experimental substances (R)-4-{(R)-1-[7-(3,4,5-trimethoxy-phenyl)-[1,6] naphthyridine-5-yloxy]-ethyl}pyrrolidine-2-one (BI-1002494) and cromolyn (OC-101) were administered orally into the stomach at 10 mL/kg using an oral administration syringe (sonde) before 16:00 daily for 12 weeks at a frequency of 7 days/week at doses shown in Table 1 below, respectively, and dexamethasone was orally administered as a positive control substance.

[2] = system: animal model of insulin-resistant diabetes; assay: Blood insulin (Mouse Insulin ELISA) and HOMA-IR
Description: as §1
(§2) After the observation period for mice of each group in Example 1 was terminated, all surviving animals were fasted in the same manner as when measuring blood sugar, and then anesthetized by inhaling isoflurane, and blood was collected from the abdominal vena cava through laparotomy. After the blood collection was completed, the veins and arteries were cut under anesthesia and exsanguinated. The collected blood was left at room temperature for 30 minutes or more and then centrifuged at 3,000 rpm for 20 minutes. Thereafter, glucose, blood urea nitrogen (BUN), and creatinine were analyzed using an automated blood biochemistry analyzer (Hitachi 3100, Hitachi Co. Ltd., Japan). Indoxyl sulfate (a substance that was mainly produced in the intestines to cause kidney damage, and a substance that caused end-stage renal failure by advancing kidney function damage in patients with renal failure during hemodialysis) was analyzed using LC MS/MS. In addition, blood insulin was analyzed according to a method represented by a commercial Mouse Insulin ELISA KIT (#AKRIN-011T, Sibayagi Co. Ltd., Japan).

[3] = system: animal model of insulin-resistant diabetes; assay: Blood indoxyl sulfate by LC MS/MS; conditions: 12 weeks
Description: as §1, §2

[4] = Feed intake of mice in STZ-induced insulin-resistant diabetes model; set-up: feed intake: unit not given here
Description: as §1

[5] = system: animal model of insulin-resistant diabetes; assay: Blood sugar, tail vein blood, blood sugar meter, 4 h fasting; set-up: blood sugar, Mean: unit not given here
Description: as §1
Before disease induction, excluding week 9 of administration of experimental substances to mice in each group of Example 1 above, after 2 weeks after the first induction (based on a first administration date), and after 6 weeks and 2 weeks of the second induction (based on the first administration date), blood was collected from the tail vein and blood sugar was measured using a blood sugar meter (Accu-Check, Roche), and fasting was performed for 4 hours from 9:30 a.m. to 1:30 p.m.

[6] = system: animal model of insulin-resistant diabetes; assay: Blood biochemistry, automated analyzer, at end of observation; conditions: for ALT, Mean / T-CHO, Mean / AST, Mean: 12 weeks, blood
Description: as §1, §2

[7] = Drinking water intake of mice in STZ-induced insulin-resistant diabetes model; set-up: unit not given here
Description: as §1

[8] = after induction of diabetic disease, 12.5-50 mg/kg

## COc1cc(-c2cc3ncccc3c(O[C@H](C)[C@H]3CNC(=O)C3)n2)cc(OC)c1OC [BI-1002494, (R)-4-{(R)-1-[7-(3,4,5-trimethoxy-phenyl)-[1,6]naphthyridine-5-yloxy]-ethyl}pyrrolidine-2-one]
[1]; 12.5 mg/kg/day oral, week 0
  body weight, Mean: 24 g
[1]; 12.5 mg/kg/day oral, week 1
  body weight, Mean: 23.7 g
[1]; 12.5 mg/kg/day oral, week 2
  body weight, Mean: 23 g
[1]; 12.5 mg/kg/day oral, week 3
  body weight, Mean: 24.1 g
[1]; 12.5 mg/kg/day oral, week 4
  body weight, Mean: 24.3 g
[1]; 12.5 mg/kg, after week 5 of administration
  body weight compared to the disease control group: statistically significantly increased
[1]; 25 mg/kg/day oral, week 0
  body weight, Mean: 23.6 g
[1]; 25 mg/kg/day oral, week 1
  body weight, Mean: 23.5 g
[1]; 25 mg/kg/day oral, week 2
  body weight, Mean: 23.7 g
[1]; 25 mg/kg/day oral, week 3
  body weight, Mean: 23.9 g
[1]; 25 mg/kg/day oral, week 4
  body weight, Mean: 23.9 g
[1]; 25 mg/kg/day oral, week 5
  body weight, Mean: 24 g
[1]; 25 mg/kg/day oral, week 6
  body weight, Mean: 23.9 g
[1]; 25 mg/kg/day oral, week 7
  body weight, Mean: 24 g
[1]; 25 mg/kg, after week 8
  body weight compared to the disease control group: statistically significantly increased
[1]; 50 mg/kg/day oral, week 0
  body weight, Mean: 23.9 g
[1]; 50 mg/kg/day oral, week 2
  body weight, Mean: 23.8 g
[1]; 50 mg/kg/day oral, week 3
  body weight, Mean: 23.8 g
[1]; 50 mg/kg/day oral, week 4
  body weight, Mean: 23.8 g
[1]; 50 mg/kg/day oral, week 5
  body weight, Mean: 23.6 g
[1]; 50 mg/kg/day oral, week 6
  body weight, Mean: 23.8 g
[1]; 50 mg/kg/day oral, week 7
  body weight, Mean: 24 g
[1]; 50 mg/kg, after week 8
  body weight compared to the disease control group: statistically significantly increased
[2]; 25 mg/kg
  HOMA-IR compared with the disease control group: statistically significantly reduced
[2]; 50 mg/kg
  HOMA-IR compared with the disease control group: statistically significantly reduced
[2]; [8]
  insulin resistance (HOMA-IR), summary: decreased in a dose-dependent manner
[3]; 12.5 mg/kg/day oral
  Indoxyl sulfate, Mean: 2.2 µg/mL
[3]; 25 mg/kg/day oral
  Indoxyl sulfate, Mean: 2.2 µg/mL
[3]; 50 mg/kg/day oral
  Indoxyl sulfate, Mean: 1.9 µg/mL
[4]; 12.5 mg/kg, after week 4 of administration
  feed intake compared to the disease control group: statistically significantly decreased
[4]; 25 mg/kg/day oral, week 1
  feed intake: 5.60
[4]; 25 mg/kg/day oral, week 2
  feed intake: 5.58
[4]; 25 mg/kg/day oral, week 3
  feed intake: 5.26
[4]; 25 mg/kg/day oral, week 4
  feed intake: 4.99
[4]; 25 mg/kg/day oral, week 5
  feed intake: 5.15
[4]; 25 mg/kg/day oral, week 7
  feed intake: 5.04
[4]; 25 mg/kg/day oral, week 8
  feed intake: 4.95
[4]; 25 mg/kg/day oral, week 9
  feed intake: 4.62
[4]; 25 mg/kg/day oral, week 10
  feed intake: 4.63
[4]; 25 mg/kg, after week 6 of administration
  feed intake compared to the disease control group: statistically significantly decreased
[4]; 50 mg/kg/day oral, week 1
  feed intake: 5.74
[4]; 50 mg/kg/day oral, week 4
  feed intake: 5.14
[4]; 50 mg/kg/day oral, week 7
  feed intake: 5.11
[4]; 50 mg/kg/day oral, week 9
  feed intake: 4.30
[4]; 50 mg/kg/day oral, week 10
  feed intake: 4.14
[4]; 50 mg/kg, after week 8 of administration
  feed intake compared to the disease control group: statistically significantly decreased
[5]; 12.5 mg/kg/day oral, value column 2 of 6, head prints only weeks 0, 4, 8, 10
  blood sugar, Mean: 319.5
[5]; 12.5 mg/kg/day oral, week 0
  blood sugar, Mean: 291.1
[5]; 25 mg/kg/day oral, value column 2 of 6, head prints only weeks 0, 4, 8, 10
  blood sugar, Mean: 310.1
[5]; 25 mg/kg/day oral, week 0
  blood sugar, Mean: 301.2
[5]; 50 mg/kg/day oral, value column 2 of 6, head prints only weeks 0, 4, 8, 10
  blood sugar, Mean: 264.5
[5]; 50 mg/kg/day oral, week 0
  blood sugar, Mean: 303.7
[5]; administered group, dose not specified
  blood sugar compared to the positive control group: decreased significantly
[5]; [8]
  blood sugar, summary: decreased in a dose-dependent manner
[6]; 12.5 mg/kg/day oral
  ALT, Mean: 45.7 L⁻¹
  T-CHO, Mean: 151.6 dL⁻¹
[6]; 25 mg/kg/day oral
  ALT, Mean: 30.9 L⁻¹
  AST, Mean: 76.8 L⁻¹
  T-CHO, Mean: 125.0 dL⁻¹
[6]; 50 mg/kg/day oral
  ALT, Mean: 45.8 L⁻¹
  AST, Mean: 83.4 L⁻¹
  T-CHO, Mean: 138.7 dL⁻¹
[6]; 12.5, 25, 50 mg/kg
  dose dependence of GLU reduction: clear dose dependence
[6]; [8]
  blood glucose, summary: decreased in a dose-dependent manner
[6]; all administered groups (12.5, 25, 50 mg/kg)
  GLU, statistical comparison: statistically significantly reduced
[7]; 12.5 mg/kg/day oral, week 1
  drinking water intake, Mean: 7.91
[7]; 12.5 mg/kg/day oral, week 2
  drinking water intake, Mean: 7.41
[7]; 12.5 mg/kg/day oral, week 4
  drinking water intake, Mean: 7.08
[7]; 12.5 mg/kg/day oral, week 5
  drinking water intake, Mean: 7.16
[7]; 12.5 mg/kg/day oral, week 6
  drinking water intake, Mean: 7.34
[7]; 12.5 mg/kg/day oral, week 7
  drinking water intake, Mean: 7.24
[7]; 12.5 mg/kg/day oral, week 8
  drinking water intake, Mean: 6.99
[7]; 12.5 mg/kg/day oral, week 9
  drinking water intake, Mean: 7.40
[7]; 25 mg/kg/day oral, week 0
  drinking water intake, Mean: 7.07
[7]; 25 mg/kg/day oral, week 1
  drinking water intake, Mean: 7.62
[7]; 25 mg/kg/day oral, week 3
  drinking water intake, Mean: 7.38
[7]; 25 mg/kg/day oral, week 4
  drinking water intake, Mean: 6.73
[7]; 25 mg/kg/day oral, week 5
  drinking water intake, Mean: 7.19
[7]; 25 mg/kg/day oral, week 6
  drinking water intake, Mean: 7.34
[7]; 25 mg/kg/day oral, week 7
  drinking water intake, Mean: 7.69
[7]; 25 mg/kg/day oral, week 8
  drinking water intake, Mean: 7.43
[7]; 25 mg/kg/day oral, week 9
  drinking water intake, Mean: 7.54
[7]; 25 mg/kg/day oral, week 10
  drinking water intake, Mean: 7.15
[7]; 50 mg/kg/day oral, week 0
  drinking water intake, Mean: 7.27
[7]; 50 mg/kg/day oral, week 1
  drinking water intake, Mean: 7.04
[7]; 50 mg/kg/day oral, week 3
  drinking water intake, Mean: 6.95
[7]; 50 mg/kg/day oral, week 4
  drinking water intake, Mean: 7.13
[7]; 50 mg/kg/day oral, week 5
  drinking water intake, Mean: 6.48
[7]; 50 mg/kg/day oral, week 9
  drinking water intake, Mean: 6.51
[7]; 50 mg/kg/day oral, week 10
  drinking water intake, Mean: 6.22
